Where two headings read alike, the source gives them in different places.
What was measured:
[1] = log P by potentiometric titration octanol/water (Sirius T3); log D7.4 calculated from pKa and log P; assay type: physicochemical
Description: In addition to gaining an understanding about the metal coordinating properties of the salicylate MBIs by using [(Tp^Ph,Me)Zn(MBI)] model complexes, the physicochemical properties of the MBIs were also studied. The acidity (pKa) and lipophilicity (log P) were measured using potentiometric methods and the lipophilicity at physiological pH (log D7.4) was calculated from these two values (Table 1).[23–25]
Physicochemical properties were determined using a Sirius T3 instrument.[23–25] […] The pKa of a compound was determined by analysing each MBI sample in triplicate using potentiometric titrations. Experiments were typically performed over a pH range of 2.0–12.0. Standard deviations were derived from fitting all three replicate experiments. For water insoluble compounds methanol was added and the obtained apparent pKa (psKa) was extrapolated to the aqueous pKa by the Yasuda–Shedlovsky procedure. log P was determined via potentiometric titrations in the presence of varying ratios of octanol and water. The presence of octanol shifts the pKa of ionizable species, and based on the shifts, a log P can be determined. Measurements for log P determination were typically performed over a pH range of 2.0–12.0. Three experiments with varying ratios of water:octanol was performed, allowing for a standard deviation to be determined from the fitting of all measurements. MBI sample sizes were ∼0.5 mg for both pKa and log P measurements.

[2] = biological target: T1, Recombinant human glyoxalase I (GLO1) (Homo sapiens, UniProt Q04760); test: GLO1 enzyme inhibition assay (absorbance at 240 nm); assay type: biochemical; settings: for inhibition at 100 µM: read-out: %inhib GLO1
T1 construct: purchased R&D Systems 4959-GL
T1 sequence (Q04760 2-184 limits assumed): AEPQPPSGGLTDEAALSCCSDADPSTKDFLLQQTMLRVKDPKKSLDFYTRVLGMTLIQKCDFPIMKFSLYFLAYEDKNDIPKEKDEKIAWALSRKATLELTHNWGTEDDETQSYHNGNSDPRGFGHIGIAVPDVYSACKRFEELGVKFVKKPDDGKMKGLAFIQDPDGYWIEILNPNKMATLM
Description: To evaluate if the salicylate MBIs could serve as starting points for future FBDD campaigns, the MBI library was screened for inhibitory activity against human glyoxalase I (GLO1) at fragment concentrations of 100 μM (Table 2). […] Recombinant human glyoxalase I (GLO1) was purchased from R&D Systems (catalog #4959-GL). Assays were carried out in 0.1 M sodium phosphate, pH 7.0 buffer, utilizing 96-well clear UV plates (Corning UV Transparent Microplates, catalog #3635). A fresh solution of GSH (100 mM) and methylglyoxal (MG) (100 mM) was prepared in Millipore grade water. […] The substrate mixture was vortexed vigorously for 45 s and then allowed to sit at room temperature for 15 min. The initial well volume was 50 μL containing GLO1 (40 ng) and inhibitor. This protein and inhibitor mixture was incubated for 15–20 min prior to addition of the substrate. […] The enzyme activity was measured utilizing a Biotek Synergy HT or H4 plate reader by measuring absorbance at 240 nm every 1 min for a duration of 8 min. The rate of absorbance increase was compared for samples versus controls containing no inhibitor (set at 100% activity). The absorbance reading for background wells containing DMSO, buffer, and substrate (no enzyme or inhibitor) was subtracted from the experimental wells. […] Dose-response curves were generated, analysed and fitted to obtain IC50 values (see ESI ^†).
5. Single Point screening
Single point screening of salicylate MBI library against GLO1 at 100 µM inhibitor concentration. Chugai 1 (4,6-diphenyl-N-hydroxypyridone) 4 as positive control. […]
6. Dose-response curves against GLO1
The raw data from the GLO1 assay was background corrected and normalized from 0 to 100 with 100 being the largest mean of each dataset. A variable slope log-logistic model was chosen for curve fitting.
The corresponding datapoints are shown as empty bullets and were not included in the curve-fitting. The resulting restricted datasets were fitted according to a literature procedure setting the lower limit of the dose-response curve to zero. This compensates for the loss of information caused by trimming of the dataset. 5,6
Figure S7. Dose-response curve of 11 against GLO1.

[3] = biological target: T2, Human recombinant MMP-3 catalytic domain (Homo sapiens, UniProt P08254); test: MMP-3 enzyme inhibition assay (chromogenic substrate, 412 nm); assay type: biochemical; settings: standard deviation in parentheses, read-out: %inhib MMP-3
T2 construct: Human recombinant MMP-3 catalytic domain was purchased; purchased ENZO Life Sciences BML-SE109-9090
T2 sequence (P08254 100-272 limits assumed): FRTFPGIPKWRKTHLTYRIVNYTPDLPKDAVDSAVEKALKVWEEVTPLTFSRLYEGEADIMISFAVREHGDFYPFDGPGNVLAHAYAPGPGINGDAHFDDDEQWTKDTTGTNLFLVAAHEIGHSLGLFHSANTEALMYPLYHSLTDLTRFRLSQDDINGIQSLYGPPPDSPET
Description: To probe the selectivity of the salicylate MBIs, the library was screened against matrix metalloproteinase-3 (MMP-3) at fragment concentrations of 100 μM (Table 2).
Human recombinant MMP-3 catalytic domain was purchased from ENZO Life Sciences (catalog # BML-SE109-9090). Assays were carried out in clear Costar 96-well, half-area, flat-bottom assay plates (catalog # 80-2404). Each well contained a total volume of 100 μL including buffer (50 mM MES, 10 mM CaCl2, 0.05% Brij-35, 1 mM DNTB, pH 6.0), MMP-3 (2 U), and the fragment solution. After a 30 min incubation period at 37 °C, the reaction was initiated by the addition of 10 μL of chromogenic MMP-3 substrate (100 μM final concentration, Ac-Pro-Leu-Gly-[2-mercap-to-4-methyl-pentanoyl]-Leu-Gly-OC2H5, ENZO Life Sciences, catalog #BML-P125-0005). Absorbance was monitored at 412 nm using a Bio-Tek ELx 808 colorimetric plate reader, and measurements were recorded every minute for 10 min. The rate of absorbance increase was compared for samples versus negative controls (no inhibitor, arbitrarily set as 100% activity).
5. Single Point screening […]
Figure S5. Single point screening of salicylate MBI library against MMP-3 at 100 µM inhibitor
concentration. NNGH as positive control.

[4] = system: influenza H1N1 N-terminal PA endonuclease (PAN); test: PAN endonuclease inhibition assay (fluorescent ssDNA-oligo substrate); assay type: biochemical; settings: 100 μM; standard deviation in parentheses
[5] = biological target: T1, Recombinant human glyoxalase I (GLO1); set-up: method as in previous studies (unpublished); settings: ref previous studies (unpublished); read-out: IC50 against GLO1; cited from earlier work
[6] = assay type: physicochemical
From the text: This was confirmed by computationally calculated physicochemical data (Tables S2 and S3 ^†).

[7] = 100 μM, standard deviation in parentheses

Structure (SMILES)	logP [1]	logD ([1]; pH 7.4)	inhibition at 100 µM [2, 7] [%]	inhibition at 100 µM [3] [%]	%inhib Endo (PAN) [4]	IC50 [5] [µM]	%inhib GLO1 [2, 7]	IC50 ([2]; dose-response curves, read-out: IC50 against GLO1) [µM]	aqueous solubility [6]
O=C(O)c1ccccc1O [Compound 1, Salicylic acid, reference compound]	2.18	-2.4	22	8	12 (7) %	> 50			
Oc1ccccc1-c1nc2ccccc2s1 [Compound 11]			94	0	21 (6) %		almost complete inhibition	19.6 ± 4.7	poor aqueous solubility
CS(=O)(=O)Nc1ccccc1-c1nc2ccccc2s1 [Compound 27]			44	0	15 (7) %				poor aqueous solubility
c1ccc2sc(-c3cccc4nc[nH]c34)nc2c1 [Compound 28]					4 (8) %				poor aqueous solubility

Reference: article PMC8849047, “Salicylate metal-binding isosteres as fragments for metalloenzyme inhibition” (Chemical Science, 2022)
